From patent publication US12460207B2, “Inhibiting APE2 expression in a subject treated with a drug agent that causes increased APE2 expression” (The Cleveland Clinic Foundation, priority 2021, dated 2025)
d = 2'-deoxy (DNA); m = 2'-O-methyl

Assays:
[1] = system: APE2; assay: Western blot of kidney protein expression in platinum drug-treated mice: APE2; type: in vivo, mouse; details: for APE2 expression in kidney cells: 40 mg/kg single intraperitoneal dose
Protocol: (§1) Ten-week-old wild-type C57BL/6J mice weighing 25-28 g were purchased from the Jackson Laboratory. […] An identical volume of saline (0.9% NaCl) was administered intraperitoneally to control mice.
(§2) Total protein samples were isolated with RIPA buffer, fractionated on 4%-12% Bis-Tris polyacrylamide gels (Thermo Fisher Scientific), and electroblotted onto PVDF membranes (Millipore). Membranes were blocked with 5% nonfat milk and incubated overnight with rabbit anti-APE2 polyclonal antibody (Bioss, #bs-6587R), rabbit anti-APE1 polyclonal antibody (Abnova, #H00000328-D02), mouse anti-LIG3 monoclonal antibody (Santa Cruz Biotechnology, #sc-56089), rabbit anti-MRE11 monoclonal antibody (Cell Signaling Technology, #4847), rabbit anti-CtIP polyclonal antibody (Bethyl Laboratories, #300-488A), or goat anti-β-actin polyclonal antibody (Santa Cruz Biotechnology, #sc-1615) overnight at 4° C. Membranes were then washed and incubated with HRP-linked anti-rabbit IgG secondary antibody (Cell Signaling Technology, #7074) or HRP-linked anti-mouse IgG secondary antibody (Cell Signaling Technology, #7076S). […] Detection by chemiluminescence was carried out by means of a SuperSignal West Femto Maximum Sensitivity Substrate kit (Thermo Fisher Scientific) with β-actin as a loading control.

[2] = system: APE1; assay: Western blot of kidney protein expression in cisplatin-treated mice: APE1; type: in vivo, mouse; details: cisplatin 15 mg/kg, 3 days after treatment
Protocol: as §1, §2

[3] = system: LIG3; assay: Western blot of kidney protein expression in cisplatin-treated mice: LIG3; type: in vivo, mouse; details: cisplatin 15 mg/kg, 3 days after treatment
Protocol: as §1, §2

[4] = system: MRE11; assay: Western blot of kidney protein expression in cisplatin-treated mice: MRE11; type: in vivo, mouse; details: cisplatin 15 mg/kg, 3 days after treatment
Protocol: as §1, §2

[5] = system: CTIP; assay: Western blot of kidney protein expression in cisplatin-treated mice: CTIP; type: in vivo, mouse; details: cisplatin 15 mg/kg, 3 days after treatment
Protocol: as §1, §2

[6] = system: PCNA; assay: Western blot of kidney protein expression in cisplatin-treated mice: PCNA; type: in vivo, mouse; details: cisplatin 15 mg/kg, 3 days after treatment
[7] = system: APE2; assay: IHC staining for APE2 in kidney biopsies of C-AKI patients; type: in vivo, human; details: two patients with C-AKI versus normal kidney biopsies
Protocol: Kidney specimens were obtained from healthy donors and from cisplatin-induced AKI patients in accordance with Cleveland Clinic Foundation Institutional Review Board approval requirements, and written informed consent was obtained in compliance with the Helsinki. Formalin-fixed paraffin-embedded tissue sections were de-paraffinized and then incubated with rabbit anti-APE2 polyclonal antibody (Bioss, bs-6587R), rabbit anti-cleaved caspase-3monoclonal antibody (Cell Signaling Technology, #9664S), rabbit anti-MYH9 antibody (GeneTex GTX113236), or rabbit anti-phosphor-histone H2A.X(Ser139) polyclonal antibody (Cell Signaling Technology, #2577) at 4° C. overnight. After incubation with horseradish peroxidase (HRP)-conjugated goat anti-rabbit secondary antibody, signal was detected using a DAB Substrate kit (Abcam, ab64238) according the manufacturer's instructions. Images were obtained by means of a phase-contrast microscope (Leica DM2000 LED) and a digital camera (Leica DMC 2900).

[8] = system: APE2; assay: Immunofluorescence of APE2 subcellular localization in HK2 cells after cisplatin; type: cell-based, human; details: HK2 cells treated with cisplatin
Protocol: (§3) HEK293T and HK2 cells were purchased from the ATCC. Mouse anti-Prominin-1 MicroBeads (130-092-333, Miltenyi Biotec) were used to isolate PTCs from APE2LSL/− CreERT2+/− mice, Cre-ERT2+/− mice, C57B6 mice, and APE2 KO mice. The primary PTCs were cultured in DMEM/Nutrient Mixture F-12 (DMEM/F12) containing 10% FBS, 100 U/mL penicillin, and 100 μg/mL streptomycin. HEK293T and HK2 cells were routinely genotyped using the Human Cell Line Genotyping System (Promega) and were used within their 6 times passage. Mouse PTCs were genotyped using the primer for transgenic mice and were used within their 3 times passage. All cell lines were used Mycoplasma tested negative.
(§4) Immunofluorescence staining was performed as described previously (20). The slides of HK2 cells were incubated sequentially with rabbit anti-APE2 antibody (GeneTex), goat anti-rabbit Alexa Fluor 488-conjugated secondary antibody (Abcam), mouse anti-MYH9 antibody (GeneTex), goat anti-mouse Alexa Fluor 647-conjugated secondary antibody (Abcam), and rabbit anti-COXIV antibody Alexa Fluor […]-conjugated antibody (Santa Cruz Biotechnology). […]

[9] = system: APE2; assay: Immunofluorescence of APE2 subcellular localization in primary mouse PTCs after cisplatin; type: cell-based; details: primary mouse PTCs treated with cisplatin
Protocol: as §3, §4

[10] = system: wild-type (WT) and APE2 KO mice; details: mouse, in vivo, 15 mg/kg
Protocol: as §1
(§5) APE2 conditional transgenic mice were generated by inserting a transcription-translation STOP cassette flanked by LoxP sites (LSL) at the start of the APE2 locus. An FRT-mediated recombination ColA1 3′ untranslated region locus was used first to generate APE2LSL mice. The STOP cassette prevents expression of the APE2 gene. To remove the STOP cassette and activate APE2 expression in vivo, the APE2LSL mice were mated with Rosa26-Cre-Estrogen Receptor-T2 (CreERT2+/−) mice (18; #8463, The Jackson Laboratory), in which the ERT moiety retains Cre recombinase activity in the cytoplasm until tamoxifen administration releases this block and promotes recombination of genomic LoxP sites. Three-week-old APE2LSL/+CreERT2+/− mice and CreERT2+/− mice were injected intraperitoneally with 10 mg/kg 4-OH-tamoxifen for 3 consecutive days. Creatinine and EPO were measured using mouse creatinine (Crystal Chem) and EPO (R&D Systems) ELISA kits. We used heterozygous male (APE2−/Y) mice (12) bearing a mutated APE2 allele on the X chromosome, in which a genomic region from the 3′-region of its intron 5 to the 5′-region in exon 6 was replaced by a neo cassette by crossing heterozygous APE2 female (APE2−/+) mice with wild-type C57BL/6 mice. […] Using this breeding strategy, there is the potential risk and uncertainty of interference with the germline DNA in the male and female APE2 knockout progeny because APE2 has already been knocked out in the male parent (APE2−/Y) and because the function of APE2 is to be responsible for DNA damage repair (13). All mice were of C57B6 genetic background. All experiments involving animals were pre-approved by the Cleveland Clinic IACUC (Institutional Animal Care and Use Committee).
(§6) Mouse kidney biopsy specimens were submerged in 2.5% EM grade glutaraldehyde in 2.5% glutaraldehyde/4% paraformaldehyde in 0.2 mol/L sodium cacodylate buffer (pH 7.4) at 4° C. immediately after sectioning and fixed at 4° C. overnight. After washing three times for 5 minutes in sodium cacodylate buffer (0.2 mol/L, pH 7.3), kidney fragments were fixed in 1% aqueous osmium tetroxide for 60 minutes at 4° C., then washed twice for 5 minutes with sodium cacodylate buffer and rinsed once with maleate buffer (pH 5.1, 5 minutes). After changing to 1% uranyl acetate in maleate buffer, the samples were stained for 60 minutes; the uranyl acetate was removed. The samples were then washed three times for 5 minutes with maleate buffer and then dehydrated with ascending grades of ethanol, and finally embedded in Epon resin (Electron Microscopy Science). […]

[11] = system: primary PTCs; assay: Oxygen consumption (Seahorse Cell Mito Stress) of PTCs from cisplatin-treated mice; type: cell-based, mouse; details: PTCs of cisplatin-treated APE2 KO mice versus WT
Protocol: as §3
The functional activity of PTC mitochondria was measured by using a Seahorse XF24 Analyzer and a Seahorse XF Cell Mito Stress Test Assay (Agilent Technologies). Mitochondrial functionality was examined by direct measurement of the OCR of cells according to the manufacturer's instructions. Briefly, 8×10^4 PTCs were seeded into 24-well plates and allowed to attach overnight. The cells were subjected to OCR detection by sequential injections of oligomycin, carbonyl cyanide p-trifluoromethoxyphenylhydrazone (FCCP), and a combination of rotenone and antimycin A. Basal OCR=measured OCR level before the injection of oligomycin. Adenosine triphosphate (ATP) synthesis-linked OCR (ATP-linked)=basal OCR−OCR following oligomycin injection. […]

[12] = within 24 hours of administration; cited from earlier work
[13] = system: CreERT2+/−, APE2LSL/− mice; assay: APE2-ASO treatment of transgenic CreERT2+/−, APE2LSL/− mice (APE2 AKI mouse model); type: in vivo; details: for kidney function: treated 4 weeks, once per week
Source text: as §5, §6

[14] = system: APE2; assay: PK/PD study in C57B6 mice, APE2 expression by western blot; type: in vivo, mouse
Protocol: Further optimization of the ASO drug. Potential ASO toxicities fall into two categories: (i) hybridization-dependent toxicities due to on- or off-target events, and (ii) hybridization-independent toxicities, such as excessive immunostimulation due to non-antisense effects of the ASO. We performed the PK/PD study using C57B6 mice. We IP injected six weeks old male mice with 20 mg/kg APE2-ASO and checked the APE2 expression by western blot analysis. We found the APE2 could be knock down in two days and restored in 4 days after injection (FIG. 9).

[15] = 20 mg/kg IP, six weeks old male C57B6 mice

Compound: N.N.O=C([O-])C1(C(=O)[O-])CCC1.[Pt+2] [carboplatin]
- APE2 expression in kidney cells [1]: slight upregulation

Compound: N.N.[Cl][Pt][Cl] [cisplatin]
- APE2 expression in kidney ([1]; cisplatin 15 mg/kg single intraperitoneal dose, kidney collected 3 days after treatment): the most highly upregulated protein
- APE1 expression in kidney [2]: slightly upregulated
- LIG3 expression in kidney [3]: slightly upregulated
- MRE11 expression in kidney [4]: slightly upregulated
- CTIP expression in kidney [5]: slightly upregulated
- PCNA expression in kidney [6]: downregulated
- APE2 protein in PTCs by IHC [7]: dramatically upregulated
- APE2 subcellular localization [8]: enriched in the cytoplasm, especially within mitochondria
- APE2 subcellular localization [9]: enriched in the cytoplasm, especially within mitochondria
- kidney damage [10]: only minor kidney damage
- kidney weight [10]: decreased kidney weight
- mitochondrial fragmentation (EM) [10]: less mitochondrial fragmentation
- renal damage [10]: most severe
- OCR in PTCs [11]: significantly increased
- cisplatin excreted via the urine [12]: 50%-80%

Compound: O=C1[O][Pt]2([NH][C@@H]3CCCC[C@H]3[NH]2)[O]C1=O [oxaliplatin]
- APE2 expression in kidney cells [1]: slight upregulation

Compound: mU*mG*mU*C*C*T*T*A*C*A*G*A*A*mG*mG*mU (UGUCCTTACAGAAGGU; sugars from the 5' end m3 d10 m3, all phosphorothioate, methylation of C not given here) [APE2-ASO-3]
- plasma creatine level ([13]; compared with saline treated controls, P<0.01): significantly reduced
- mitochondrial morphology (EM) ([13]; compared with vehicle treated mice, age of eight weeks): remained relatively normal
- kidney function [13]: protected
- kidney function ([13]; listed as APE2-ASO gapmer drug): protected kidney function
- time to APE2 knock down after injection [14, 15]: two
- time to restored APE2 expression after injection [14, 15]: 4 days
- APE2 level ([14]; wild type C57B6 mice): knock down
